Where a name gives a salt, the structure may show the parent alone. Read-outs that look alike come from different tables or passages of the source.

The target of data set [1] is T1, human histamine-H3 receptor (Homo sapiens, UniProt Q9Y5N1).
T1 construct: expressed in transfected cells; host or cells: HEK293 and CHO-K1 (membrane specimen)
Description: Histamine analogue-binding inhibition test. The settings on record: 50% inhibitory concentration to specific [3H]N-α-methylhistamine binding; membrane specimen of cells expressing histamine-H3 receptor; 25° C., 2 hours. From the text:
A cDNA sequence coding for a human histamine-H3 receptor (see WO00/39164) was cloned with expression vectors pCR2.1, pEF1x (by Invitrogen) and pCI-neo (by Promega). The resulting expression vector was transfected into host cells, HEK293 and CHO-K1 (American Type Culture Collection), according to a cationic lipid process [see Proceedings of the National Academy of Sciences of the United States of America, Vol., 84, p. 7413 (1987)] to obtain histamine-H3 receptor expression cells.
A membrane specimen prepared from the cells having expressed a histamine-H3 receptor was incubated in an assay buffer (50 mM Tris buffer, pH 7.4) along with a test compound and 20,000 cpm [^3H]N-α-methylhistamine (by NEN) therein, at 25° C. for 2 hours, and then filtered through a glass filter GF/C. After washed with 50 mM Tris buffer (pH 7.4), the radioactivity on the glass filter was determined. The non-specific binding was determined in the presence of 10 μM thioperamide (by SIGAM), and the 50% inhibitory concentration (IC50) of the test compound to the specific N-alpha-methylhistamine binding was calculated [Molecular Pharmacology, Vol. 55, p. 1101 (1999)].

The next data set addresses T2, histamine-H3 receptor (Rattus norvegicus, UniProt Q9QYN8).
T2 construct: from tissue; host or cells: living male SD rat (brain, third ventricle administration of the agonist)
Description: Test for antagonistic effect to water-drinking action induced by histamine-H3 receptor selective agonist, R-α-methylhistamine. To be noted: male SD rat; 30 mg/kg orally 2 hours before R-α-methylhistamine; water drunk for 1 hour. The format is in vivo. The method, then: Under anesthesia with ketamine xylazine (74 and 11 mg/kg intraabdominal single administration), a brain stereotaxic device was set in the third ventricle of a male SD rat (7 to 10-week age, […]), and a chronic guide cannula (26 gauge, length 11 mm) was inserted into it and fixed with a dental resin. The position of the tip of the guide cannula is at 2.2 mm after the bregrna on the midline, and at a depth of 8 mm from the surface of the skull. After a restoration term of about 1 week, R-α-methylhistamine (0.3 μg/l μL/head, 30% propylene glycol liquid) was administered into the third ventricle. A test compound (compound of Example 3-8) suspended in an aqueous 0.5% methyl cellulose solution was orally administered to the rat before 2 hours before the R-α-methylhistamine administration; and after the R-α-methylhistamine administration, the amount of water drunk by the rat for 1 hour was measured.

Data set [2] can be described thus: Test for brain/cerebrospinal fluid transition. The format is in vivo. The settings on record: SD male rat, 2 hours after the oral administration (10 mg/kg). From the text: A test compound (compound of Example 3-8) was orally or intravenously administered to an SD male rat (7 to 10-week age, 200 to 400 g), and under anesthesia with ether for a predetermined period of time, the whole blood was collected from it through the abdominal aorta thereof using a heparin-processed syringe. Next, the head skin was cut, and a dental 30 G needle was stuck into the cervical spine to run through the subarachnoid cavity. Via a tube connected to the dental 30 G needle, from 50 to 100 μl of the cerebrospinal fluid was collected in a 1-mL syringe, and then the brain was taken out. The blood sample was centrifuged (4° C., 6000 revolutions, 10 minutes), and the resulting plasma was stirred with ethanol (containing an internal standard substance) in an amount of three times thereof added to it. The brain sample was homogenized with 2 mL of water added thereto; and a part of it was taken out and stirred with ethanol (containing an internal standard substance) in an amount of three times thereof added to it. The cerebrospinal fluid was stirred with ethanol (containing an internal standard substance) in an amount of three times thereof added to it. The above samples were left at −20° C. for 20 minutes, then centrifuged (4° C., 12,000 g, 10 minutes), and the supernatant was analyzed through LC/MS/MS. According to a relative calibration curve method, the compound concentration in the plasma, in the brain and in the cerebrospinal fluid was determined. As a result, the test compound concentration in the brain was 0.99 nmol/g, that in the cerebrospinal fluid was 0.074 μM and that in the plasma was 0.6 μM, after 2 hours after the oral administration (10 mg/kg).

T1 sequence (Q9Y5N1 whole entry): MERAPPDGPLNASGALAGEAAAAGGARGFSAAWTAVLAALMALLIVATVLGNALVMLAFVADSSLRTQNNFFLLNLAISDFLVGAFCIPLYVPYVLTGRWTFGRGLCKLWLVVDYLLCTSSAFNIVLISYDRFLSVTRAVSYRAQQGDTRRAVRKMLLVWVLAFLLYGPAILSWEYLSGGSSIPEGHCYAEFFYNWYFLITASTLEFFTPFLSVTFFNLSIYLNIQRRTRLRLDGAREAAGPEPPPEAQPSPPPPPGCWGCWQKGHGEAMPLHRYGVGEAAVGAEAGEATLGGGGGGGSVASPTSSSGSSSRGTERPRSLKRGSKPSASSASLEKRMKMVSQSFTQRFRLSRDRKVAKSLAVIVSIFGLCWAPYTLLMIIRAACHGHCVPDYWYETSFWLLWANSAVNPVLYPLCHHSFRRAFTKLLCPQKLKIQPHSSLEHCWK
T2 sequence (Q9QYN8 whole entry): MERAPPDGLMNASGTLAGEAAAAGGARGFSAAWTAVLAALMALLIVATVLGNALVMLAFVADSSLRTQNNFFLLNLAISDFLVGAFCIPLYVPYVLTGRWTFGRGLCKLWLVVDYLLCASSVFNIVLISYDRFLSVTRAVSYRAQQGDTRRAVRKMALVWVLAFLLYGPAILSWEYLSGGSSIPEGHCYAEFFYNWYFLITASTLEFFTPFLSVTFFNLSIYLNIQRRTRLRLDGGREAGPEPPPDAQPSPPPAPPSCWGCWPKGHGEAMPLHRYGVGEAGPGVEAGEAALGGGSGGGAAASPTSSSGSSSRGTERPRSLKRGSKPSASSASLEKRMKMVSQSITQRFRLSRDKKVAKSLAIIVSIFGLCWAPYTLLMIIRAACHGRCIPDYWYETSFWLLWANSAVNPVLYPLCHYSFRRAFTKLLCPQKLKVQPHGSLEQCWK

In data set [1], `COc1ccc(C2(O)CCN(c3ccc(OCCCN4CCCCC4)cc3)CC2)cc1` [Example 2-6, 4-(4-methoxyphenyl)-1-[4-(3-piperidin-1-ylpropoxy)phenyl]piperidin-4-ol trifluoroacetate] yielded a 50% inhibitory concentration (IC50) of 3 nM. `O=C1COC2(CCN(c3ccc(OCCCN4CCCCC4)cc3)CC2)CN1c1ccccc1` [Example 3-8, 4-phenyl-9-[4-(3-piperidin-1-ylpropoxy)phenyl]-1-oxa-4,9-diazaspiro[5,5]undecan-3-one] yielded an IC50 in data set [1] of 4.2 nM. The “increase in the water drinking induced by the administration of R-α-methylhistamine in the third ventricle” value on histamine-H3 receptor was “significantly inhibited”. Moreover, in data set [2], the “test compound concentration in the brain” value is listed as 0.99 nmol/g. For the same molecule, the concentration at 2 h in data set [2] (cerebrospinal fluid, read-out: test compound concentration in the cerebrospinal fluid) is 74 nM; in data set [2] (plasma, read-out: test compound concentration in the plasma) it was 600 nM.

Turning to `COc1ncc(N2CC3(CCN(c4ccc(OCCCN5CCCCC5)cc4)CC3)OCC2=O)cn1` [Example 3-15, 4-(2-methoxypyrimidin-5-yl)-9-[4-(3-piperidin-1-ylpropoxy)phenyl]-1-oxa-4,9-diazaspiro[5,5]undecan-3-one], in data set [1], the 50% inhibitory concentration (IC50) came to 0.22 nM. On the same count and under the same terms, the result for `O=C1OC2(CCN(c3ccc(OCCCN4CCCCC4)cc3)CC2)CN1c1ccncc1` [Example 3-42, 8-[4-(3-piperidin-1-ylpropoxy)phenyl]-3-(pyridin-4-yl)-1-oxa-3,8-diazaspiro[4,5]decan-2-one] reads 0.94 nM; that for `C[C@@H]1CCCN1CCCOc1ccc(N2CCC3(CC2)CN(c2ccc(S(C)(=O)=O)cc2)C(=O)CO3)cc1` [Example 3-79, 9-(4-{3-[(2R)-2-methylpyrrolidin-1-yl]propoxy}phenyl)-4-[4-(methylsulfonyl)phenyl]-1-oxa-4,9-diazaspiro[5,5]undecan-3-one], 0.19 nM. On the same count and under the same terms, next, `C[C@H]1CCCN1CCCOc1ccc(N2CCC3(CC2)CN(c2cnn(C)c2)C(=O)CO3)cc1` [Example 3-95, 4-(1-methyl-1H-pyrazol-4-yl)-9-(4-{3-[(2S)-2-methylpyrrolidin-1-yl]propoxy}phenyl)-1-oxa-4,9-diazaspiro[5,5]undecan-3-one]: 1.2 nM; `CCN1CC2(CCN(c3ccc(OCCCN4CCC[C@H]4C)cc3)CC2)OC1=O` [Example 3-96, 3-ethyl-8-(4-{3-[(2R)-2-methylpyrrolidin-1-yl]propoxy}phenyl)-1-oxa-3,8-diazaspiro[4,5]decan-2-one]: 0.41 nM. The same measure, in the same setting: next, `COc1ccc(N2CC3(CCN(c4ccc(OC5CCN(C6CCC6)CC5)cc4)CC3)OCC2=O)cc1` [Example 3-107, 9-{4-[(1-cyclobutylpiperidin-4-yl)oxy]phenyl}-4-(4-methoxyphenyl)-1-oxa-4,9-diazaspiro[5,5]undecan-3-one]: 0.18 nM; `CC(C)N1CCC(Oc2ccc(N3CCC4(CC3)CN(c3cnccn3)C(=O)CO4)cc2)CC1` [Example 3-138, 9-{4-[(1-isopropylpiperidin-4-yl)oxy]phenyl}-4-pyrazin-2-yl-1-oxa-4,9-diazaspiro[5,5]undecan-3-one]: 1.08 nM; `O=C1COC2(CCN(c3ccc(OC4CCN(C5CCC5)CC4)nc3)CC2)CN1c1cccnc1` [Example 3-150, 9-{6-[(1-cyclobutylpiperidin-4-yl)oxy]pyridin-3-yl}-4-pyridin-3-yl-1-oxa-4,9-diazaspiro[5,5]undecan-3-one]: 0.66 nM. The molecule `COc1ccc(N2CC3(CCN(c4ccc(OC5CCN(C6CCC6)CC5)cc4)CC3)OC2=O)cn1` [Example 3-168, 8-{4-[(1-cyclobutylpiperidin-4-yl)oxy]phenyl}-3-(6-methoxypyridin-3-yl)-1-oxa-3,8-diazaspiro[4,5]decan-2-one] displayed an IC50 in data set [1] of 0.09 nM. The same measure, in the same setting: next, `C[C@H]1CCCN(CCCOc2ccc(N3CCC4(CC3)CN(C3CCCC3)C(=O)CO4)cc2)C1` [Example 4-17, 4-cyclopentyl-9-(4-{3-[(3S)-3-methylpiperidin-1-yl]propoxy}phenyl)-1-oxa-4,9-diazaspiro[5,5]undecan-3-one]: 1.2 nM.

The values above are taken from patent publication US8138206B2, “Piperidine derivative” (MSD. K.K., priority 2005, dated 2012).
